Assay results: patent publication US20160074480A1, “INNOVATIVE METHODS OF TREATMENTING TUBERCULOSIS” (priority 2015, published 2016)

Assays:
[1] = test system: M. tuberculosis; settings: added to or substituted in isoniazid, rifampicin and pyrazinamide triple therapy; cited from earlier work
[2] = in vivo; cited from earlier work
[3] = test system: pulmonary tuberculosis; settings: given alone; cited from earlier work
[4] = 2 mg/kg; amikacin 450 mg/kg; cited from earlier work
[5] = test system: tuberculosis bacteria; settings: treated for 3 days, versus untreated sample; cited from earlier work
[6] = test system: latent tuberculosis; settings: taken daily for 9 months; cited from earlier work
[7] = test system: Mycobacterium tuberculosis growth; settings: cited from earlier work
[8] = test system: MCF-7 Human Breast Cancer Cells; settings: insulin with methotrexate; cited from earlier work
[9] = Finger stick blood sugar after insulin; format: in vivo, human; settings: 10 minutes after 5-10 units subcutaneously or IV
Description: Blood sugar was tested by using finger stick. We administered 5-10 units of homolog (rapid acting) insulin subcutaneously or IV slowly depending on the blood sugar levels. The glucose was checked 10 minutes later. It has dropped to ±40 mg %.

COc1nc2ccc(Br)cc2cc1[C@@H](c1ccccc1)[C@@](O)(CCN(C)C)c1cccc2ccccc12 [R-207910, Bedaquiline]
effectiveness of treatment [1]: increased the effectiveness

[H]/N=C(/N)N[C@H]1[C@H](O)[C@@H](O)[C@H](O[C@@H]2O[C@@H](C)[C@](O)(C=O)[C@H]2O[C@@H]2O[C@@H](CO)[C@H](O)[C@@H](O)[C@@H]2NC)[C@@H](N/C(N)=N\[H])[C@@H]1O [Streptomycin]
ADVERSE EVENT/CONTRAINDICATION [2]: Deafness, Contraindicated during pregnancy | immediate mortality [3]: dramatic reduction in immediate mortality

CCOC(=O)C1=C[C@]2(CC)CCCN3CCc4c(n1c1ccccc41)[C@@H]32 [Vinpocetine]
hearing loss [4]: prevented hearing loss

NNC(=O)c1ccncc1 [isoniazid, Isoniazid]
intracellular levels of ferrous ions [5]: up to ten times higher | reduction of the risk of active TB [6]: ≤ 90% | ADVERSE EVENT/CONTRAINDICATION [2]: Peripheral neuropathy

Capreomycin
adverse effects stated in the text [2]: nephrotoxicity and 8th cranial auditory vestibular nerve toxicity | concentration inhibiting growth [7]: 2.5 µg/mL

insulin: hormone produced in beta cells of pancreas, large polypeptide of A and B chains
enhancement of the activity of methotrexate [8]: 10,000 times | blood glucose by finger stick [9]: ~40 mg %
